Measurements taken from patent US8030341B2, “Dmt-derivative compounds and related compositions and methods of use” (priority 2005, dated 2011).
Counter-ions that a name gives are not always drawn. Like-named read-outs stand apart in the source and are kept apart here.

Legend:
δ-opioid receptor [1] = target: T1, δ-opioid receptor (Rattus norvegicus, UniProt P33533); assay: opioid receptor binding competition assay, rat brain P2 synaptosomal membranes (δ); settings: for Ki(μ)/Ki(δ): selectivity ratio
T1 construct: from tissue; host or cells: rat brain P2 synaptosomal membranes (Sprague-Dawley)
Description: (§1) Synaptosomes were preincubated to remove endogenous opioids, washed in excess ice-cold buffer containing protease inhibitor and stored in a glycerol-containing buffer with protease inhibitor at −80° C. as described in Lazarus et al., J. Med. Chem. 34:1350-55 (1991). […] After incubation, the radiolabeled membranes were rapidly filtered on Whatman GF/C glass fiber filters presoaked in 0.1% polyethylenimine in order to optimize the signal-to-noise ratio, washed with ice-cold BSA buffer, and dried at 75-80° C. Radioactivity was determined using EcoLume (ICN, Costa Mesa, Calif.). All compounds were analyzed in duplicate using 5-8 peptide dosages and several synaptosomal preparations in independent repetitions to ensure statistical significance. The affinity constants (Ki) were calculated according to Cheng and Prusoff (Cheng et al., Biochem. Pharmacol., 22: 3099-3108 ([…])).

μ-opioid receptor [2] = target: T2, μ-opioid receptor (Rattus norvegicus, UniProt P33535); assay: opioid receptor binding competition assay, rat brain P2 synaptosomal membranes (μ); settings: for Ki(δ)/Ki(μ): selectivity ratio
T2 construct: from tissue; host or cells: rat brain P2 synaptosomal membranes (Sprague-Dawley)
Description: as §1

δ-opioid receptor [3] = target: T3, δ-opioid receptor (Mus musculus, UniProt P32300); assay: mouse vas deferens (MVD) bioassay; format: cell-based; settings: for MVD Antagonist pA2 (nM), value in parentheses (Ke): versus deltorphin II, antilog of pA2; for MVD Antagonist pA2: versus deltorphin II as agonist
T3 construct: from tissue; host or cells: isolated mouse vas deferens
Description: Bioorg. Med. Chem., 11: 675-678 (2003). The isolated tissues were suspended in organ baths containing balanced salt solutions in a physiological buffer, pH 7.5. […]

μ-opioid receptor [4] = target: T4, μ-opioid receptor (Cavia porcellus, UniProt P97266); assay: guinea pig ileum (GPI) bioassay; format: cell-based; settings: for GPI Antagonist pA2 (nM), value in parentheses (Ke): versus endomorphin-2, antilog of pA2
Description: The myenteric plexus longitudinal muscle preparations (2-3 cm segments) from the small intestine of male Hartley strain guinea pigs (GP1) measured μ-opioid receptor agonism and a single mouse vas deferens (MVD) was used to determine δ-opioid receptor agonism as described in Sasaki et al. Bioorg. […] The isolated tissues were suspended in organ baths containing balanced salt solutions in a physiological buffer, pH 7.5. Agonists were tested for the inhibition of electrically evoked contraction and expressed as IC50 (nM) obtained from the dose-response curves.

δ-opioid receptor [5] = target: T3, δ-opioid receptor; settings: Table 2; reference value marked 6a; cited from earlier work
μ-opioid receptor [6] = target: T4, μ-opioid receptor; settings: Table 2; reference value marked 6a; cited from earlier work
δ-opioid receptor [7] = target: T1, δ-opioid receptor; settings: Table 3; reference rows marked e, f, g (no SE, no n); cited from earlier work
μ-opioid receptor [8] = target: T2, μ-opioid receptor; settings: Table 3, reference rows marked e, f, cited from earlier work
[9] = Table 1, rat brain synaptosomes, footnote a: versus [3H]DAMGO, read-out: Ki(δ)
[10] = Table 1, rat brain synaptosomes, footnote b: versus [3H]DPDPE, read-out: Ki(μ)
[11] = Table 2, inhibition of electrically evoked contraction, read-out: MVD agonist IC50
[12] = Table 2, inhibition of electrically evoked contraction, read-out: GPI agonist IC50

T2 sequence (P33535 whole entry): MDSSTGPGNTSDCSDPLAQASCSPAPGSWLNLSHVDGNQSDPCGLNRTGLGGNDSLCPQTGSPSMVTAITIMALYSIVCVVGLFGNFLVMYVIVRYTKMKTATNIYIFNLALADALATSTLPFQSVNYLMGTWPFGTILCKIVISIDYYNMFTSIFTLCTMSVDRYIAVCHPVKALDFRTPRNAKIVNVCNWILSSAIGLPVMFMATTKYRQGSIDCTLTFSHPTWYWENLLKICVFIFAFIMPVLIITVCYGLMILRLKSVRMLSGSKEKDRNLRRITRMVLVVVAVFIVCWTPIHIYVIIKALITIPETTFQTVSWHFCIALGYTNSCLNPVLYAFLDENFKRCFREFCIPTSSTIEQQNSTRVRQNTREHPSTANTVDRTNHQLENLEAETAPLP
T4 sequence (P97266 whole entry, looked up): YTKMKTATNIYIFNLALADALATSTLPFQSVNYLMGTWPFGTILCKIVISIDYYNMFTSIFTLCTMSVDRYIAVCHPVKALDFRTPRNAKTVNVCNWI
T3 sequence (P32300 whole entry): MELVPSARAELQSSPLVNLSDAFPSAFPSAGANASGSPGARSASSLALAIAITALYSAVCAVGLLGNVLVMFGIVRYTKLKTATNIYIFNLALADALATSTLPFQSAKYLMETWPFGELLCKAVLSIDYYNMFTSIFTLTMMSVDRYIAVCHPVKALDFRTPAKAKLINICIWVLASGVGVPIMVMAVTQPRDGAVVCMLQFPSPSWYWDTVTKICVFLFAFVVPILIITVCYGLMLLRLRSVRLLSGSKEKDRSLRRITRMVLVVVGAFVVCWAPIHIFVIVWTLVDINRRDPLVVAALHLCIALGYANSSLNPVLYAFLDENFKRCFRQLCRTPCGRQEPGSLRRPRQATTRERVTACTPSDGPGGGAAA
T1 sequence (P33533 whole entry): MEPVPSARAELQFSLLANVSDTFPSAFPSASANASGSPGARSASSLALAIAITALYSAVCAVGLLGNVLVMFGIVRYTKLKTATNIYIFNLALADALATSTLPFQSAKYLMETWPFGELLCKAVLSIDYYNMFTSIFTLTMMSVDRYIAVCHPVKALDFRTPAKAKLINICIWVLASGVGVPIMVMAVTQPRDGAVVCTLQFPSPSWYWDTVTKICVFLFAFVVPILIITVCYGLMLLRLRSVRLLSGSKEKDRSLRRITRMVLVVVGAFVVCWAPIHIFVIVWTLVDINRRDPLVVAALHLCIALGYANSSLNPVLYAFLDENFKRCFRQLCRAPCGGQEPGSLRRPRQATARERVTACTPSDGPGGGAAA

Work on `Cc1cc(O)cc(C)c1CC(N)C(=O)N1Cc2ccccc2CC1C(=O)NCCCCCCNC(=O)C1Cc2ccccc2CN1C(=O)C(N)Cc1c(C)cc(O)cc1C` (stereo not drawn) [Compound 19, 1,6-Bis(Dmt-Tic-amino)hexane] yielded a Ki (δ-opioid receptor [1]) of 0.129 ± 0.03 nM, a Ki (μ-opioid receptor [2]) of 1.79 ± 0.08 nM and an IC50 (δ-opioid receptor [3]) of over 10000 nM. The “MVD Antagonist pA2 (nM), value in parentheses (Ke)” value (“MVD Antagonist pA2 (nM), value” below) (δ-opioid receptor [3]; Table 2) was 0.024 nM.
For `Cc1cc(O)cc(C)c1CC(N)C(=O)N1Cc2ccccc2CC1C(=O)NCCCCCCCCCCNC(=O)C1Cc2ccccc2CN1C(=O)C(N)Cc1c(C)cc(O)cc1C` (stereo not drawn) [Compound 20, 1,10-Bis(Drat-Tic-amino)decane], the Ki (δ-opioid receptor [1]) was 1.53 ± 0.16 nM, the “Ki(μ)/Ki(δ)” value (δ-opioid receptor [1]; Table 1) was 3 and the Ki (μ-opioid receptor [2]) was 4.86 ± 0.41 nM. For the same compound, the IC50 (δ-opioid receptor [3]) was over 10000 nM, the “MVD Antagonist pA2 (nM), value” value (δ-opioid receptor [3]; Table 2) was 0.0107 nM and the IC50 (μ-opioid receptor [4]) was 5420 ± 1840 nM.
For `Oc1ccc2c3c1O[C@H]1c4[nH]c5ccccc5c4C[C@@]4(O)[C@@H](C2)N(CC2CC2)CC[C@]314` [Naltrindole], the “MVD Antagonist pA2” value (δ-opioid receptor [5]) is given as 9.2, the “MVD Antagonist pA2 (nM), value” value (δ-opioid receptor [5]) is given as 0.631 nM and the “GPI Antagonist pA2” value (μ-opioid receptor [6]) is given as 7.3. For the same compound, the “GPI Antagonist pA2 (nM), value in parentheses (Ke)” value (from here on “GPI Antagonist pA2 (nM), value”) (μ-opioid receptor [6]) was 50 nM.
With `Cc1cc(O)cc(C)c1CC(N)C(=O)N1Cc2ccccc2CC1C(=O)NCCCCNC(=O)C1Cc2ccccc2CN1C(=O)C(N)Cc1c(C)cc(O)cc1C` (stereo not drawn) (as salt: HCl) [Compound 18, 1,4-Bis(Dmt-Tic-amino)butane] the melting point was 215 to 217 °C.
In the case of `Cc1cc(O)cc(C)c1CC(N)C(=O)N1Cc2ccccc2CC1C(=O)NCCCCNC(=O)C1Cc2ccccc2CN1C(=O)C(N)Cc1c(C)cc(O)cc1C` (stereo not drawn) [Compound 18, 1,4-Bis(Dmt-Tic-amino)butane], the Ki (δ-opioid receptor [1]) is reported as 0.124 ± 0.016 nM, the “Ki(μ)/Ki(δ)” value (δ-opioid receptor [1]; Table 1) is reported as 46 and the Ki (μ-opioid receptor [2]) is reported as 5.72 ± 0.22 nM. The IC50 (δ-opioid receptor [3]) was over 10000 nM, the “MVD Antagonist pA2 (nM), value” value (δ-opioid receptor [3]; Table 2) was 0.0309 nM and the IC50 (μ-opioid receptor [4]) was over 10000 nM. The “GPI Antagonist pA2 (nM), value” value (μ-opioid receptor [4]; Table 2) was 102 nM.
With `Cc1cc(O)cc(C)c1CC(C(=O)N1Cc2ccccc2CC1C(=O)NCCCCCCNC(=O)C1Cc2ccccc2CN1C(=O)C(Cc1c(C)cc(O)cc1C)N(C)C)N(C)C` (stereo not drawn) [Compound 21, 1,6-Bis(N,N-Dimethyl-Dmt-Tic-NH)-hexane] the Ki (δ-opioid receptor [1]) was 0.06 ± 0.01 nM, the “Ki(μ)/Ki(δ)” value (δ-opioid receptor [1]; Table 1) was 37 and the Ki (μ-opioid receptor [2]) was 2.21 ± 0.08 nM. For the same compound, the IC50 (δ-opioid receptor [3]) was over 10000 nM, the “MVD Antagonist pA2 (nM), value” value (δ-opioid receptor [3]; Table 2) was 0.0052 nM and the IC50 (μ-opioid receptor [4]) was over 10000 nM. The Kb (μ-opioid receptor [4]) was 4 nM.
For `Cc1cc(O)cc(C)c1CC(N)C(=O)N1Cc2ccccc2CC1C(=O)NCc1[nH]c(=O)c(CNC(=O)C2Cc3ccccc3CN2C(=O)C(N)Cc2c(C)cc(O)cc2C)nc1C` (stereo not drawn) (as salt: HCl) [Compound 8], the melting point was 224 to 226 °C (dec.).
With “3-(Dmt-Tic-NH-ethyl)-6-(Dmt-Tic-NH-butyl)-2(1H)-pyrazinone [Compound 14]” the Ki (δ-opioid receptor [1]; [9]) was 0.107 ± 0.007 nM, the “Ki(μ)/Ki(δ)” value (δ-opioid receptor [1]; Table 1) was 13 and the Ki (μ-opioid receptor [2]; [10]) was 1.37 ± 0.13 nM. The IC50 (δ-opioid receptor [3]; [11]) was over 10000 nM, the “MVD Antagonist pA2” value (δ-opioid receptor [3]; Table 2) was 10.99 and the “MVD Antagonist pA2 (nM), value” value (δ-opioid receptor [3]; Table 2) was 0.0102 nM. It also gave an IC50 (μ-opioid receptor [4]; [12]) of over 10000 nM.
In the case of H-Dmt-Pro-Phe-Phe-NH2 [[Dmt^1]EM-2], the Ki (δ-opioid receptor [7]) is listed as 28.2 nM, the Ki (μ-opioid receptor [8]; g (no SE, no n)) is listed as 0.15 nM and the “Ki(δ)/Ki(μ)” value (μ-opioid receptor [8]; g) is listed as 188.
With `Cc1cc(O)cc(C)c1CC(N)C(=O)N1Cc2ccccc2CC1C(=O)NCCc1cnc(CCNC(=O)C2Cc3ccccc3CN2C(=O)C(N)Cc2c(C)cc(O)cc2C)c(=O)[nH]1` (stereo not drawn) [Compound 9, 3,6-Bis(Dmt-Tic-NH-ethyl)-2(1H)-pyrazinone] the Ki (δ-opioid receptor [1]; [9]) was 0.095 ± 0.0004 nM, the “Ki(μ)/Ki(δ)” value (δ-opioid receptor [1]; Table 1) was 30 and the Ki (μ-opioid receptor [2]; [10]) was 2.83 ± 0.12 nM. The IC50 (δ-opioid receptor [3]; [11]) was over 10000 nM, the “MVD Antagonist pA2” value (δ-opioid receptor [3]; Table 2) was 10.73 and the “MVD Antagonist pA2 (nM), value” value (δ-opioid receptor [3]; Table 2) was 0.0186 nM. The IC50 (μ-opioid receptor [4]; [12]) was over 10000 nM, the “GPI Antagonist pA2 (nM), value” value (μ-opioid receptor [4]; Table 2) was 165 nM and the “GPI Antagonist pA2” value (μ-opioid receptor [4]; Table 2, versus endomorphin-2 as agonist) was 6.78.
In the case of `C=CCN[C@@H](Cc1c(C)cc(O)cc1C)C(=O)NCCCc1[nH]c(=O)c(CCCNC(=O)[C@H](Cc2c(C)cc(O)cc2C)NCC=C)nc1C` [Compound 32, Bis-[(N-allyl)Dmt-NH-propyl]pyrazinone], the Ki (δ-opioid receptor [1]) is reported as 51.5 ± 4.1 nM, the Ki (μ-opioid receptor [2]) is reported as 12.4 ± 1.1 nM and the “Ki(δ)/Ki(μ)” value (μ-opioid receptor [2]; Table 3) is reported as 4. The Kb (δ-opioid receptor [3]) was 269 nM, the IC50 (δ-opioid receptor [3]; Table 4, agonism, read-out: MVD) was over 10000 nM and the Kb (μ-opioid receptor [4]) was 67.6 nM. For the same compound, the IC50 (μ-opioid receptor [4]; Table 4, agonism, read-out: GPI) was over 10000 nM and the “pA2(μ)/pA2(δ)” value (μ-opioid receptor [4]; Table 4, selectivity of antagonism) was 4.
In the case of `C=CCN[C@@H](Cc1ccc(O)cc1)C(=O)N1CCC[C@H]1C(=O)N[C@@H](Cc1ccccc1)C(=O)N[C@@H](Cc1ccccc1)C(N)=O` [Compound 29, [N-allyl]EM-2], the Ki (δ-opioid receptor [1]; Table 3, versus [3H]DPDPE, rat brain synaptosomes, read-out: Ki(δ)) is reported as 7360 ± 259 nM, the “Ki(δ)/Ki(μ)” value (μ-opioid receptor [2]; Table 3) is reported as 57 and the Ki (μ-opioid receptor [2]; Table 3, versus [3H]DAMGO, rat brain synaptosomes, read-out: Ki(μ)) is reported as 130 ± 9.27 nM.
